Results published in paper PMC9101838, “Novel CFTR Activator Cact-3 Ameliorates Ocular Surface Dysfunctions in Scopolamine-Induced Dry Eye Mice” (International Journal of Molecular Sciences, 2022).

Molecular target: T1, Cystic fibrosis transmembrane conductance regulator (CFTR) (Homo sapiens, UniProt P13569)
T1 construct: human WT-CFTR
Assay: apical membrane current in FRT cells expressing human WT-CFTR; whole-cell patch clamp in CHO-K1 cells; no change in cAMP
Type: cell-based

T1 sequence (P13569 whole entry): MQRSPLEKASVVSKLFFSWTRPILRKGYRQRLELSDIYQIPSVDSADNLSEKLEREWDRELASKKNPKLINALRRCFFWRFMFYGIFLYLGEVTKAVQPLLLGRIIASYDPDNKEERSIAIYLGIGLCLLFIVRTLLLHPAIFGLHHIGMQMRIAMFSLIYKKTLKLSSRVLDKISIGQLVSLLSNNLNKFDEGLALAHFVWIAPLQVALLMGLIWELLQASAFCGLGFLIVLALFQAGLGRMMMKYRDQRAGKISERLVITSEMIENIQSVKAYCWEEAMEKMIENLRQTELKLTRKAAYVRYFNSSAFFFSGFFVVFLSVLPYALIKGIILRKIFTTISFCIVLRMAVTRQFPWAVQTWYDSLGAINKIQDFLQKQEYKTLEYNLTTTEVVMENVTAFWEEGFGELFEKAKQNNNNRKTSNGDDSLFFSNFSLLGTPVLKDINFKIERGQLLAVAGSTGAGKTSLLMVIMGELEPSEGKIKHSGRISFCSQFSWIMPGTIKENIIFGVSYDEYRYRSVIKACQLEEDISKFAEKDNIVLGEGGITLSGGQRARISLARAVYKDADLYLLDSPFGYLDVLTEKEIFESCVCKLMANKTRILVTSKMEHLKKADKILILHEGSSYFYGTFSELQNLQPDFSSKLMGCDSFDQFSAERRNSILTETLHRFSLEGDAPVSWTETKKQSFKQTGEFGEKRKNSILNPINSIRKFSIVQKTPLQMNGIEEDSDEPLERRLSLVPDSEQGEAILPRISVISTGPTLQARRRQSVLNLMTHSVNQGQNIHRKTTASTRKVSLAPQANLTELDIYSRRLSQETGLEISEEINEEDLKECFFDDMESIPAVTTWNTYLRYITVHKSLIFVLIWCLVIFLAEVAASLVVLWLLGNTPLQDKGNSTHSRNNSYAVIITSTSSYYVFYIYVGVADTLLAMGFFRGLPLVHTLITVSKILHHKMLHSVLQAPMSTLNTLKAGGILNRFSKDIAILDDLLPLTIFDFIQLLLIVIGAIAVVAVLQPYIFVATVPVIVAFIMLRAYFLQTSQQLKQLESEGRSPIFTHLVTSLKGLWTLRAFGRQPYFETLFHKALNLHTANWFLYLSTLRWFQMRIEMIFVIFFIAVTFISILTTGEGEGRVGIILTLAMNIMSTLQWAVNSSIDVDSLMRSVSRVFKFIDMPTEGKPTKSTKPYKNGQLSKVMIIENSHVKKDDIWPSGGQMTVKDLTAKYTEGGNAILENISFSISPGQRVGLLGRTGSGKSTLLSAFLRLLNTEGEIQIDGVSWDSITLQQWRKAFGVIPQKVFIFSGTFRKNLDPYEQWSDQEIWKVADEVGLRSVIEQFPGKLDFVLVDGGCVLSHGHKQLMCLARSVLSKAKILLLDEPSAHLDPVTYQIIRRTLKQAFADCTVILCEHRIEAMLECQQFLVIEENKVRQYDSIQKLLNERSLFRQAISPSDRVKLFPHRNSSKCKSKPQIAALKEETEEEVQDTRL

SMILES: CCOc1ccc(NC(=O)c2cc3nccc(-c4ccc(OC)c(OC)c4)n3n2)cc1 [Cact-3, 7-(3,4-dimethoxyphenyl)-N-(4-ethoxyphenyl)pyrazolo [1,5-α]pyrimidine-2-carboxamide]
- EC50: 255 nM
